The MIC is the lowest concentration that inhibits growth of the organism.

In brackets after ≈: the same amount, converted by molar mass.

Common to all, as to type: functional
Test [1] has as its system Alternaria alternata. Description: Antifungal activity against Alternaria alternata assessed as growth inhibition at 25 degC after 48 hr by two-fold broth macrodilution method.
For test [2], the system named is Alternaria alternata. Description: Antifungal activity against Alternaria alternata assessed as growth inhibition at 2 mg/ml at 25 degC by agar well diffusion bioassay. To be noted: read-out: GI. In general terms: In agar diffusion tests the substance spreads into inoculated agar from a disc or well.
Test [3] deals with Pestalotiopsis sp. Description: Antifungal activity against Pestalotiopsis sp. assessed as growth inhibition at 2 mg/ml at 25 degC by agar well diffusion bioassay. To be noted: read-out: GI.
In test [4] the test system is Colletotrichum acutatum. Description: Antifungal activity against Colletotrichum acutatum assessed as growth inhibition at 3 mg/ml at 25 degC by agar well diffusion bioassay. The settings on record: read-out: GI.
Test [5] has as its system Pestalotiopsis sp. Description: Antifungal activity against Pestalotiopsis sp. assessed as growth inhibition at 3 mg/ml at 25 degC by agar well diffusion bioassay. The settings on record: read-out: GI.
Test [6] relates to Pestalotiopsis sp. Description: Antifungal activity against Pestalotiopsis sp. assessed as growth inhibition at 25 degC after 48 hr by two-fold broth macrodilution method.
Test [7] has as its system Pestalotiopsis sp. Description: Antifungal activity against Pestalotiopsis sp. assessed as growth inhibition at 1 mg/ml at 25 degC by agar well diffusion bioassay. To be noted: read-out: GI.
The subject of test [8] is Colletotrichum acutatum. Description: Antifungal activity against Colletotrichum acutatum assessed as growth inhibition at 2 mg/ml at 25 degC by agar well diffusion bioassay. The settings on record: read-out: GI.
Test [9] has as its system Helminthosporium. Description: Antifungal activity against Helminthosporium sp. assessed as growth inhibition at 3 mg/ml at 25 degC by agar well diffusion bioassay. To be noted: read-out: GI.
For test [10], the system named is Colletotrichum acutatum. Description: Antifungal activity against Colletotrichum acutatum assessed as growth inhibition at 4 mg/ml at 25 degC by agar well diffusion bioassay. To be noted: read-out: GI.
Test [11] relates to Helminthosporium. Description: Antifungal activity against Helminthosporium sp. assessed as growth inhibition at 25 degC after 48 hr by two-fold broth macrodilution method.
The test system of test [12] is Helminthosporium. Description: Antifungal activity against Helminthosporium sp. assessed as growth inhibition at 2 mg/ml at 25 degC by agar well diffusion bioassay. To be noted: read-out: GI.
In test [13] the test system is Alternaria alternata. Description: Antifungal activity against Alternaria alternata assessed as growth inhibition at 3 mg/ml at 25 degC by agar well diffusion bioassay. The settings on record: read-out: GI.
Test [14] deals with Colletotrichum acutatum. Description: Antifungal activity against Colletotrichum acutatum assessed as growth inhibition at 25 degC after 48 hr by two-fold broth macrodilution method.
In test [15] the test system is Alternaria alternata. Description: Antifungal activity against Alternaria alternata assessed as growth inhibition at 1 mg/ml at 25 degC by agar well diffusion bioassay. The settings on record: read-out: GI.
In test [16] the test system is Colletotrichum acutatum. Description: Antifungal activity against Colletotrichum acutatum assessed as growth inhibition at 1 mg/ml at 25 degC by agar well diffusion bioassay. To be noted: read-out: GI.
Test [17] has as its system Helminthosporium. Description: Antifungal activity against Helminthosporium sp. assessed as growth inhibition at 4 mg/ml at 25 degC by agar well diffusion bioassay. To be noted: read-out: GI.
Test [18] has as its system Alternaria alternata. Description: Antifungal activity against Alternaria alternata assessed as growth inhibition at 4 mg/ml at 25 degC by agar well diffusion bioassay. The settings on record: read-out: GI.
The test system of test [19] is Helminthosporium. Description: Antifungal activity against Helminthosporium sp. assessed as growth inhibition at 1 mg/ml at 25 degC by agar well diffusion bioassay. The settings on record: read-out: GI.
The test system of test [20] is Pestalotiopsis sp. Description: Antifungal activity against Pestalotiopsis sp. assessed as growth inhibition at 4 mg/ml at 25 degC by agar well diffusion bioassay. To be noted: read-out: GI.

For `CC(=O)O[C@@H]1C(C)(C)OC(=O)[C@]12COc1ccc3c(=O)cc(-c4ccccc4)oc3c12` [(+)-GLABRATEPHRIN], the MIC with Alternaria alternata [1] is 500 mg/L (≈ 1190 µM); in the test on Pestalotiopsis sp. [6] it was 500 mg/L (≈ 1190 µM); in the test with Helminthosporium [11], 250 mg/L (≈ 595 µM); in the test with Colletotrichum acutatum [14], 250 mg/L (≈ 595 µM). For the same molecule, the inhibition of growth at 2000 µg/mL with Alternaria alternata [2] amounted to 10%; in the test on Pestalotiopsis sp. [3], 11.8%; in the test on Colletotrichum acutatum [8], 26.4%; in the test on Helminthosporium [12] it was 11.6%. In addition, the inhibition of growth at 3000 µg/mL was 32.6% in the test with Colletotrichum acutatum [4], 20.8% in the test with Pestalotiopsis sp. [5], 23.3% in the test on Helminthosporium [9] and 17% with Alternaria alternata [13]. Also, the inhibition of growth at 1000 µg/mL in the test with Pestalotiopsis sp. [7] amounted to 8%; in the test on Alternaria alternata [15], 5.3%; with Colletotrichum acutatum [16] it was 16.1%; in the test on Helminthosporium [19] it was 13.9%. The inhibition of growth at 4000 µg/mL in the test on Colletotrichum acutatum [10] was 46.4%; in the test on Helminthosporium [17], 37.8%; with Alternaria alternata [18], 24.1%; in the test with Pestalotiopsis sp. [20] it was 31.9%.

As for `COC(=O)Nc1nc2ccccc2[nH]1` [CARBENDAZIM], the MIC worked out at 125 mg/L (≈ 654 µM) in the test with Alternaria alternata [1], 70 mg/L (≈ 366 µM) with Pestalotiopsis sp. [6], 70 mg/L (≈ 366 µM) in the test with Helminthosporium [11] and 70 mg/L (≈ 366 µM) with Colletotrichum acutatum [14]. Further, the inhibition of growth at 2000 µg/mL stood at 56.7% in the test on Alternaria alternata [2], 61.3% in the test with Pestalotiopsis sp. [3], 60.3% in the test on Colletotrichum acutatum [8] and 61.1% in the test with Helminthosporium [12]. In addition, the inhibition of growth at 3000 µg/mL is 73.9% in the test on Colletotrichum acutatum [4], 68.4% with Pestalotiopsis sp. [5], 66.3% in the test on Helminthosporium [9] and 63% in the test with Alternaria alternata [13]. In addition, the inhibition of growth at 1000 µg/mL with Pestalotiopsis sp. [7] came out at 47.7%; in the test with Alternaria alternata [15], 43.1%; in the test with Colletotrichum acutatum [16], 50.6%; in the test with Helminthosporium [19] it was 44.2%. The inhibition of growth at 4000 µg/mL in the test on Colletotrichum acutatum [10] is 78.9%; in the test with Helminthosporium [17], 79%; with Alternaria alternata [18], 67.8%; in the test on Pestalotiopsis sp. [20], 70.6%.

As for `CC(=O)O[C@@H]1C(C)(C)OC(=O)[C@@]12COc1ccc3c(=O)cc(-c4ccccc4)oc3c12` [ISOGLABRATEPHRIN], the MIC with Alternaria alternata [1] came to 1000 mg/L (≈ 2380 µM); in the test with Pestalotiopsis sp. [6], 1000 mg/L (≈ 2380 µM); in the test on Helminthosporium [11], 1000 mg/L (≈ 2380 µM); with Colletotrichum acutatum [14] it was 250 mg/L (≈ 595 µM). Further, the inhibition of growth at 2000 µg/mL in the test on Alternaria alternata [2] is 8.4%; in the test on Pestalotiopsis sp. [3], 14.4%; in the test on Colletotrichum acutatum [8] it was 25.3%; in the test on Helminthosporium [12], 16.3%. Further, the inhibition of growth at 3000 µg/mL in the test with Colletotrichum acutatum [4] was 37%; with Pestalotiopsis sp. [5], 17%; in the test on Helminthosporium [9] it was 28.9%; with Alternaria alternata [13], 10.7%. Further, the inhibition of growth at 1000 µg/mL stood at 6.3% in the test with Pestalotiopsis sp. [7], 3.2% in the test on Alternaria alternata [15], 14.4% in the test on Colletotrichum acutatum [16] and 7.4% in the test on Helminthosporium [19]. Also, the inhibition of growth at 4000 µg/mL worked out at 42.9% in the test on Colletotrichum acutatum [10], 32.6% in the test on Helminthosporium [17], 16.1% with Alternaria alternata [18] and 27.5% with Pestalotiopsis sp. [20].

For `COc1ccc2c(=O)cc(-c3ccccc3)oc2c1/C=C/C(C)(C)O` [LANCEOLATIN-A], the MIC was determined as 1000 mg/L (≈ 2970 µM) in the test on Alternaria alternata [1], 500 mg/L (≈ 1490 µM) in the test on Pestalotiopsis sp. [6], 500 mg/L (≈ 1490 µM) in the test on Helminthosporium [11] and 500 mg/L (≈ 1490 µM) with Colletotrichum acutatum [14]. The inhibition of growth at 2000 µg/mL amounted to 6.6% in the test with Alternaria alternata [2], 16.3% with Pestalotiopsis sp. [3], 15.2% with Colletotrichum acutatum [8] and 7.7% in the test on Helminthosporium [12]. The inhibition of growth at 3000 µg/mL in the test on Colletotrichum acutatum [4] was 22.6%; with Pestalotiopsis sp. [5], 23.8%; with Helminthosporium [9] it was 10.7%; in the test on Alternaria alternata [13] it was 8.1%. The inhibition of growth at 1000 µg/mL amounted to 8.4% in the test on Pestalotiopsis sp. [7], 3.3% with Alternaria alternata [15], 10% in the test with Colletotrichum acutatum [16] and 4.1% in the test on Helminthosporium [19]. Besides, the inhibition of growth at 4000 µg/mL with Colletotrichum acutatum [10] was 32.6%; with Helminthosporium [17], 16%; with Alternaria alternata [18], 14.1%; in the test on Pestalotiopsis sp. [20], 29.7%.

Take `CC(=O)OC(C1COc2ccc3c(=O)cc(-c4ccccc4)oc3c21)C(C)(C)O` (stereo not given) [TEPHROAPOLLIN-F]: the MIC with Alternaria alternata [1] was found to be 500 mg/L (≈ 1270 µM); in the test with Pestalotiopsis sp. [6], 250 mg/L (≈ 634 µM); in the test on Helminthosporium [11], 250 mg/L (≈ 634 µM); with Colletotrichum acutatum [14], 125 mg/L (≈ 317 µM). The inhibition of growth at 2000 µg/mL came to 16% with Alternaria alternata [2], 26.1% in the test on Pestalotiopsis sp. [3], 31.9% in the test on Colletotrichum acutatum [8] and 24.6% with Helminthosporium [12]. Moreover, the inhibition of growth at 3000 µg/mL with Colletotrichum acutatum [4] came out at 40.3%; in the test on Pestalotiopsis sp. [5] it was 45.1%; in the test on Helminthosporium [9], 36.3%; in the test on Alternaria alternata [13], 23.3%. Moreover, the inhibition of growth at 1000 µg/mL with Pestalotiopsis sp. [7] is 21.7%; in the test on Alternaria alternata [15], 11.9%; with Colletotrichum acutatum [16], 23.3%; with Helminthosporium [19], 18%. In addition, the inhibition of growth at 4000 µg/mL in the test on Colletotrichum acutatum [10] was found to be 58.3%; in the test on Helminthosporium [17], 46.5%; in the test on Alternaria alternata [18] it was 32.8%; with Pestalotiopsis sp. [20], 51.7%.

The values are drawn from ChEMBL document CHEMBL3045986, “Antifungal activity of prenylated flavonoids isolated from Tephrosia apollinea L. against four phytopathogenic fungi” (2013).
